# Assay results published in patent US20240208992A1, “MACROCYCLES AS CFTR MODULATORS” (Idorsia Pharmaceuticals Ltd, priority 2021, published 2024).
# Biological target: human F508del-CFTR (Homo sapiens, UniProt P13569, DEL508-508)
# Test: F508del-CFTR cell surface expression (corrector activity), DiscoveRx ß-galactosidase complementation chemiluminescence assay in recombinant U2OS cell line;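 further: U2OS cells co-expressing ProLink-tagged F508del-CFTR and a membrane-anchored enzyme acceptor, where more surface CFTR restores β-galactosidase activity measured by chemiluminescence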
# Conditions: U2OS cells, 16h compound incubation; for EC50: EC50, F508del-CFTR cell surface expression, geomean of several measurements; for Emax: U2OS, in relation to the Emax of the corrector lumacaftor (=100%), arithmetic mean
# Sequence of human F508del-CFTR (P13569 with tags, fused parts or gaps DEL508-508): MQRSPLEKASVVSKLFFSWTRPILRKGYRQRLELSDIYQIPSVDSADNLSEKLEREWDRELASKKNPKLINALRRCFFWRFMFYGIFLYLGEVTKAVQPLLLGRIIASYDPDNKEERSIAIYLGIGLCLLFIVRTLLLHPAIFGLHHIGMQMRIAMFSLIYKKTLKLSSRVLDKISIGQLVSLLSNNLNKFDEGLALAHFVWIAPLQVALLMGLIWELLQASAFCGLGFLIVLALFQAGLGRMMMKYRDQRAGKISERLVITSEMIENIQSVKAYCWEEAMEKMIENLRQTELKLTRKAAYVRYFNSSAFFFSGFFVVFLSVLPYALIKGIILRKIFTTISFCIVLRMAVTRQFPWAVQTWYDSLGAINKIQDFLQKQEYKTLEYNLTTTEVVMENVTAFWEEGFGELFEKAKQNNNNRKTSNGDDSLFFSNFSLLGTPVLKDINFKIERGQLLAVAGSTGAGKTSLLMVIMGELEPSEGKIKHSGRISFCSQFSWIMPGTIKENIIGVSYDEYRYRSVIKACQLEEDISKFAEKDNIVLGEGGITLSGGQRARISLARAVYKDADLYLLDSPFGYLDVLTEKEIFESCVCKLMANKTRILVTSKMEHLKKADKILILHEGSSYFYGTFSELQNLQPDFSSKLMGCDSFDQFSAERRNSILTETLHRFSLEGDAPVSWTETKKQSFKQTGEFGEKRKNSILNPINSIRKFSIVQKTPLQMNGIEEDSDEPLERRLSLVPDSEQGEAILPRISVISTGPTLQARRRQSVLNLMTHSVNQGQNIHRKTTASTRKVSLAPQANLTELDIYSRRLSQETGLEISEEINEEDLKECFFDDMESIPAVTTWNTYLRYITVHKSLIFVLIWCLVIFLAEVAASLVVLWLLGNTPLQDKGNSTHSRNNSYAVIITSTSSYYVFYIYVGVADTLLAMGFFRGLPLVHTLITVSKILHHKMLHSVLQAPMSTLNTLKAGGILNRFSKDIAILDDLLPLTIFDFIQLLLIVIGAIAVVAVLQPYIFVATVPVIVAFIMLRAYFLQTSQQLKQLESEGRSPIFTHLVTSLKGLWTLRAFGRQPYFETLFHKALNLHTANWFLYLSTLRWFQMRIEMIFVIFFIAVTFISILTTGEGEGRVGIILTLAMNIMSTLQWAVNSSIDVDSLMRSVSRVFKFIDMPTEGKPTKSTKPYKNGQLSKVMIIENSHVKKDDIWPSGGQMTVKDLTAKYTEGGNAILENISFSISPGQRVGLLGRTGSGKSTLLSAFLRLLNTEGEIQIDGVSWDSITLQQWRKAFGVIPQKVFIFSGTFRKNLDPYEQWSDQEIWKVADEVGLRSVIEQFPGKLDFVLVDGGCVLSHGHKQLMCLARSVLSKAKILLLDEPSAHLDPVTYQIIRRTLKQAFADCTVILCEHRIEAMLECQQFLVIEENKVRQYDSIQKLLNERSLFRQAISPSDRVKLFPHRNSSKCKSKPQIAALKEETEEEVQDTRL
Structure (SMILES),EC50 [nM],Emax [%]
"CC(C)C[C@H]1C(=O)N(C)C2(CC(F)(F)C2)C(=O)N[C@H](Cc2ccccc2)COc2cnc3ccc(F)cc3c2C(=O)N[C@H](C(=O)NCCn2nnc(C3CC3)n2)CC(=O)N1C [Example 838, (3′S,7′S,13′R)-13′-benzyl-N-(2-(5-cyclopropyl-2H-tetrazol-2-yl)ethyl)-3,3,20′-trifluoro-7′-isobutyl-6′,9′-dimethyl-1′,5′,8′,11′-tetraoxo-2′,3′,4′,5′,6′,7′,8′,9′,11′,12′,13′,14′-dodecahydro-1′H-spiro[cyclobutane-1,10′-[1]oxa[4,7,10,14]tetraazacycloheptadecino[17,16-c]quinoline]-3′-carboxamide]",118,358
"CC(C)C[C@H]1C(=O)N(C)C2(CC(F)(F)C2)C(=O)N[C@H](Cc2ccccc2)COc2cnc3ccc(F)cc3c2C(=O)N[C@H](C(=O)NCCc2nc(C3CC3)no2)CC(=O)N1C [Example 841, (3′S,7′S,13′R)-13′-benzyl-N-(2-(3-cyclopropyl-1,2,4-oxadiazol-5-yl)ethyl)-3,3,20′-trifluoro-7′-isobutyl-6′,9′-dimethyl-1′,5′,8′,11′-tetraoxo-2′,3′,4′,5′,6′,7′,8′,9′,11′,12′,13′,14′-dodecahydro-1′H-spiro[cyclobutane-1,10′-[1]oxa[4,7,10,14]tetraazacycloheptadecino[17,16-c]quinoline]-3′-carboxamide]",120,271
"CC(C)C[C@H]1C(=O)N(C)[C@H](Cc2nc(-c3ccc(F)cn3)no2)C(=O)N[C@H](Cc2ccccc2)COc2cnc3ccc(F)cc3c2C(=O)N[C@H](C(=O)NC[C@@H](O)c2ccccc2)CC(=O)N1C [Example 842, (3S,7S,10R,13R)-13-benzyl-20-fluoro-10-((3-(5-fluoropyridin-2-yl)-1,2,4-oxadiazol-5-yl)methyl)-N-((S)-2-hydroxy-2-phenylethyl)-7-isobutyl-6,9-dimethyl-1,5,8,11-tetraoxo-1,2,3,4,5,6,7,8,9,10,11,12,13,14-tetradecahydro-[1]oxa[4,7,10,14]tetraazacycloheptadecino[17,16-c]quinoline-3-carboxamide]",495,305
"COCCCNC(=O)[C@@H]1CC(=O)N(C)[C@@H](CC(C)C)C(=O)N(C)[C@H](Cc2nc(-c3ccc(F)cn3)no2)C(=O)N[C@H](Cc2ccccc2)COc2cnc3ccc(F)cc3c2C(=O)N1 [Example 845, (3S,7S,10R,13R)-13-benzyl-20-fluoro-10-((3-(5-fluoropyridin-2-yl)-1,2,4-oxadiazol-5-yl)methyl)-7-isobutyl-N-(3-methoxypropyl)-6,9-dimethyl-1,5,8,11-tetraoxo-1,2,3,4,5,6,7,8,9,10,11,12,13,14-tetradecahydro-[1]oxa[4,7,10,14]tetraazacycloheptadecino[17,16-c]quinoline-3-carboxamide]",453,308
"COc1nc(C)cc2c1C(=O)N[C@H](C(=O)NC[C@@H](O)c1ccccc1)CC(=O)N(C)[C@@H](CC(C)C)C(=O)N(C)[C@H](Cc1nc(C(F)(F)F)no1)C(=O)N[C@H](Cc1ccccc1)CO2 [Example 848, (3R,6R,9S,13S)-3-benzyl-N-((S)-2-hydroxy-2-phenylethyl)-9-isobutyl-16-methoxy-7,10,18-trimethyl-5,8,11,15-tetraoxo-6-((3-(trifluoromethyl)-1,2,4-oxadiazol-5-yl)methyl)-2,3,4,5,6,7,8,9,10,11,12,13,14,15-tetradecahydropyrido[3,4-p][1]oxa[4,7,10,14]tetraazacycloheptadecine-13-carboxamide]",225,364
"COc1nc(C)cc2c1C(=O)N[C@H](C(=O)NCCc1nc(C3CC3)no1)CC(=O)N(C)[C@@H](CC(C)C)C(=O)N(C)[C@H](Cc1nc(C(F)(F)F)no1)C(=O)N[C@H](Cc1ccccc1)CO2 [Example 849, (3R,6R,9S,13S)-3-benzyl-N-(2-(3-cyclopropyl-1,2,4-oxadiazol-5-yl)ethyl)-9-isobutyl-16-methoxy-7,10,18-trimethyl-5,8,11,15-tetraoxo-6-((3-(trifluoromethyl)-1,2,4-oxadiazol-5-yl)methyl)-2,3,4,5,6,7,8,9,10,11,12,13,14,15-tetradecahydropyrido[3,4-p][1]oxa[4,7,10,14]tetraazacycloheptadecine-13-carboxamide]",46,465
"COc1nccc2c1C(=O)N[C@H](C(=O)NCCCOC(F)F)CC(=O)N(C)[C@@H](CC(C)C)C(=O)N1CCCC[C@@H]1C(=O)N[C@H](Cc1ccccc1)CO2 [Example 850, (7S,11S,17aR,20R)-20-benzyl-N-(3-(difluoromethoxy)propyl)-11-isobutyl-4-methoxy-10-methyl-5,9,12,18-tetraoxo-5,6,7,8,9,10,11,12,15,16,17,17a,18,19,20,21-hexadecahydro-14H-dipyrido[2,1-f:3′,4′-p][1]oxa[4,7,10,14]tetraazacycloheptadecine-7-carboxamide]",1150,224

# More lines, in order of falling EC50, values ahead:
EC50 [nM],Emax [%],Structure (SMILES)
1040,356,"CC(C)C[C@H]1C(=O)N(C)[C@H](Cc2nc(-c3ccc(F)cn3)no2)C(=O)N[C@H](Cc2ccccc2)COc2cnc3ccc(F)cc3c2C(=O)N[C@H](C(=O)NCCc2nc3ncccn3n2)CC(=O)N1C [Example 844, (3S,7S,10R,13R)-N-(2-([1,2,4]triazolo[1,5-a]pyrimidin-2-yl)ethyl)-13-benzyl-20-fluoro-10-((3-(5-fluoropyridin-2-yl)-1,2,4-oxadiazol-5-yl)methyl)-7-isobutyl-6,9-dimethyl-1,5,8,11-tetraoxo-1,2,3,4,5,6,7,8,9,10,11,12,13,14-tetradecahydro-[1]oxa[4,7,10,14]tetraazacycloheptadecino[17,16-c]quinoline-3-carboxamide]"
198,358,"CC(C)C[C@H]1C(=O)N(C)[C@H](Cc2nc(-c3ccc(F)cn3)no2)C(=O)N[C@H](Cc2ccccc2)COc2cnc3ccc(F)cc3c2C(=O)N[C@H](C(=O)NCCn2ncc(C3CC3)n2)CC(=O)N1C [Example 837, (3S,7S,10R,13R)-13-benzyl-N-(2-(4-cyclopropyl-2H-1,2,3-triazol-2-yl)ethyl)-20-fluoro-10-((3-(5-fluoropyridin-2-yl)-1,2,4-oxadiazol-5-yl)methyl)-7-isobutyl-6,9-dimethyl-1,5,8,11-tetraoxo-1,2,3,4,5,6,7,8,9,10,11,12,13,14-tetradecahydro-[1]oxa[4,7,10,14]tetraazacycloheptadecino[17,16-c]quinoline-3-carboxamide]"
186,340,"COc1ccc(CCNC(=O)[C@@H]2CC(=O)N(C)[C@@H](CC(C)C)C(=O)N(C)[C@H](Cc3nc(-c4ccc(F)cn4)no3)C(=O)N[C@H](Cc3ccccc3)COc3cnc4ccc(F)cc4c3C(=O)N2)nc1 [Example 847, (3S,7S,10R,13R)-13-benzyl-20-fluoro-10-((3-(5-fluoropyridin-2-yl)-1,2,4-oxadiazol-5-yl)methyl)-7-isobutyl-N-(2-(5-methoxypyridin-2-yl)ethyl)-6,9-dimethyl-1,5,8,11-tetraoxo-1,2,3,4,5,6,7,8,9,10,11,12,13,14-tetradecahydro-[1]oxa[4,7,10,14]tetraazacycloheptadecino[17,16-c]quinoline-3-carboxamide]"
165,261,"CC(C)C[C@H]1C(=O)N(C)[C@H](Cc2nc(-c3ccc(F)cn3)no2)C(=O)N[C@H](Cc2ccccc2)COc2cnc3ccc(F)cc3c2C(=O)N[C@H](C(=O)NCCCOC(F)(F)F)CC(=O)N1C [Example 846, (3S,7S,10R,13R)-13-benzyl-20-fluoro-10-((3-(5-fluoropyridin-2-yl)-1,2,4-oxadiazol-5-yl)methyl)-7-isobutyl-6,9-dimethyl-1,5,8,11-tetraoxo-N-(3-(trifluoromethoxy)propyl)-1,2,3,4,5,6,7,8,9,10,11,12,13,14-tetradecahydro-[1]oxa[4,7,10,14]tetraazacycloheptadecino[17,16-c]quinoline-3-carboxamide]"
128,363,"CC(C)C[C@H]1C(=O)N(C)[C@H](Cc2nc(-c3ccc(F)cn3)no2)C(=O)N[C@H](Cc2ccccc2)COc2cnc3ccc(F)cc3c2C(=O)N[C@H](C(=O)NCCn2nc3ccccc3n2)CC(=O)N1C [Example 840, (3S,7S,10R,13R)-N-(2-(2H-benzo[d][1,2,3]triazol-2-yl)ethyl)-13-benzyl-20-fluoro-10-((3-(5-fluoropyridin-2-yl)-1,2,4-oxadiazol-5-yl)methyl)-7-isobutyl-6,9-dimethyl-1,5,8,11-tetraoxo-1,2,3,4,5,6,7,8,9,10,11,12,13,14-tetradecahydro-[1]oxa[4,7,10,14]tetraazacycloheptadecino[17,16-c]quinoline-3-carboxamide]"
123,336,"COc1cc(CCNC(=O)[C@@H]2CC(=O)N(C)[C@@H](CC(C)C)C(=O)N(C)C3(CC(F)(F)C3)C(=O)N[C@H](Cc3ccccc3)COc3cnc4ccc(F)cc4c3C(=O)N2)on1 [Example 839, (3′S,7′S,13′R)-13′-benzyl-3,3,20′-trifluoro-7′-isobutyl-N-(2-(3-methoxyisoxazol-5-yl)ethyl)-6′,9′-dimethyl-1′,5′,8′,11′-tetraoxo-2′,3′,4′,5′,6′,7′,8′,9′,11′,12′,13′,14′-dodecahydro-1′H-spiro[cyclobutane-1,10′-[1]oxa[4,7,10,14]tetraazacycloheptadecino[17,16-c]quinoline]-3′-carboxamide]"
114,368,"COc1ccc(CCNC(=O)[C@@H]2CC(=O)N(C)[C@@H](CC(C)C)C(=O)N(C)[C@H](Cc3nc(-c4ccc(F)cn4)no3)C(=O)N[C@H](Cc3ccccc3)COc3cnc4ccc(F)cc4c3C(=O)N2)cn1 [Example 843, (3S,7S,10R,13R)-13-benzyl-20-fluoro-10-((3-(5-fluoropyridin-2-yl)-1,2,4-oxadiazol-5-yl)methyl)-7-isobutyl-N-(2-(6-methoxypyridin-3-yl)ethyl)-6,9-dimethyl-1,5,8,11-tetraoxo-1,2,3,4,5,6,7,8,9,10,11,12,13,14-tetradecahydro-[1]oxa[4,7,10,14]tetraazacycloheptadecino[17,16-c]quinoline-3-carboxamide]"
